Experimental findings from ChEMBL document CHEMBL4507295 (2021) are described below.

Test [1] deals with 5-hydroxytryptamine receptor 6 (Homo sapiens) (UniProt P50406). The conditions noted are these: Compound concentration 10.0 uM.
Test [2] deals with Delta-type opioid receptor (Homo sapiens) (UniProt P41143). The conditions noted are these: Compound concentration 10.0 uM.
Test [3] concerns the target Adenosine receptor A2a (Homo sapiens) (UniProt P29274). Conditions: Compound concentration 10.0 uM; call rule not given here.
The target in test [4] is Endothelin-converting enzyme 1 (Homo sapiens) (UniProt P42892). Put plainly: Peptidase, Endothelin Converting Enzyme-1 (ECE-1) Eurofins-Panlabs enzyme assay. Conditions: Compound concentration 10.0 uM.
The nature of test [5]: Inhibition of Atrial Natriuretic Factor (ANF) at 10 µM in the Eurofins-Panlabs radioligand binding assay (Eurofins_assay_211000). The conditions noted are these: Cavia porcellus.
The species named for test [6] is Homo sapiens. The test can be described thus: Inhibition of Nicotinic Acetylcholine at compound concentration of 10.0 uM in the Eurofins-Panlabs radioligand binding assay (Eurofins_assay_258590). The class given is protein-complex assay. Conditions: Compound concentration 10.0 uM.
The target of test [7] is Somatostatin receptor type 5 (Homo sapiens) (UniProt P35346). Put plainly: Somatostatin sst5 Eurofins-Panlabs radioligand binding assay. Conditions: Compound concentration 10.0 uM.
The species named for test [8] is Rattus norvegicus. The test can be described thus: Protein Serine/Threonine Kinase, PKC, Non-Selective Eurofins-Panlabs enzyme assay. The conditions noted are these: Compound concentration 10.0 uM.
The target of test [9] is Beta-3 adrenergic receptor (Homo sapiens) (UniProt P13945). Conditions: Compound concentration 10.0 uM.
For the next test, the target named is Caspase-7 (Homo sapiens) (UniProt P55210). Put plainly: Peptidase, CASP7 (Caspase 7) Eurofins-Panlabs enzyme assay. Conditions: Compound concentration 10.0 uM.
Test [10] is filed under the species Homo sapiens. The test can be described thus: Calcitonin Gene-Related Peptide CGRP1 Eurofins-Panlabs radioligand binding assay. The class given is protein-complex assay. Conditions: Compound concentration 10.0 uM.
Test [11] has as its target Peroxisome proliferator-activated receptor gamma (Homo sapiens) (UniProt P37231). The test can be described thus: PPARgamma Eurofins-Panlabs radioligand binding assay. More on the design: ligand concentration 5 nM, non-specific ligand with concentration 0.5 µM L-797773, incubation time 18 h, incubation temperature 15 °C. The conditions noted are these: Compound concentration 10.0 uM.

The target of test [12] is Alpha-1D adrenergic receptor (Homo sapiens) (UniProt P25100). Conditions: Compound concentration 10.0 uM.
Test [13] has as its target Muscarinic acetylcholine receptor M3 (Homo sapiens) (UniProt P20309). The conditions noted are these: Compound concentration 10.0 uM.
Test [14] has as its target Histamine H1 receptor (Homo sapiens) (UniProt P35367). The conditions noted are these: Compound concentration 10.0 uM.
Test [15] deals with D(1B) dopamine receptor (Homo sapiens) (UniProt P21918). The test can be described thus: Dopamine D5 Eurofins-Panlabs radioligand binding assay. Conditions: Compound concentration 10.0 uM.
The target of test [16] is Glutamate NMDA receptor (Rattus norvegicus) (UniProt P35439+Q00959+Q00960+Q00961+Q62645+Q8VHN2+Q9R1M7). Conditions: Compound concentration 10.0 uM.
Test [17] addresses Neprilysin (Homo sapiens) (UniProt P08473). Put plainly: Peptidase, Metalloproteinase, Neutral Endopeptidase Eurofins-Panlabs enzyme assay. Conditions: Compound concentration 10.0 uM.
Test [18] concerns the target Galanin receptor type 1 (Homo sapiens) (UniProt P47211). The test can be described thus: Galanin GAL1 Eurofins-Panlabs radioligand binding assay. Conditions: Compound concentration 10.0 uM.
For test [19], the target named is Prostaglandin F2-alpha receptor (Homo sapiens) (UniProt P43088). The test can be described thus: Prostanoid FP Eurofins-Panlabs radioligand binding assay. Further details: ligand concentration 0.95 nM. The conditions noted are these: Compound concentration 10.0 uM.
The species named for test [20] is Rattus norvegicus. Put plainly: Potassium Channel [KA] Eurofins-Panlabs radioligand binding assay. More on the design: ligand concentration 0.01 nM. The conditions noted are these: Compound concentration 10.0 uM.
The target of another test is Caspase-6 (Homo sapiens) (UniProt P55212). Put plainly: Peptidase, CASP6 (Caspase 6) Eurofins-Panlabs enzyme assay. The conditions noted are these: Compound concentration 10.0 uM. Further details: substrate with concentration.
For test [21], the target named is Tyrosine 3-monooxygenase (Homo sapiens) (UniProt P07101). The test can be described thus: Tyrosine Hydroxylase Eurofins-Panlabs enzyme assay. More on the design: substrate with concentration. Conditions: Rattus norvegicus; Compound concentration 10.0 uM.
Test [22] deals with T1, Muscarinic acetylcholine receptor M4 (Homo sapiens) (UniProt P08173).
T1 sequence (whole entry): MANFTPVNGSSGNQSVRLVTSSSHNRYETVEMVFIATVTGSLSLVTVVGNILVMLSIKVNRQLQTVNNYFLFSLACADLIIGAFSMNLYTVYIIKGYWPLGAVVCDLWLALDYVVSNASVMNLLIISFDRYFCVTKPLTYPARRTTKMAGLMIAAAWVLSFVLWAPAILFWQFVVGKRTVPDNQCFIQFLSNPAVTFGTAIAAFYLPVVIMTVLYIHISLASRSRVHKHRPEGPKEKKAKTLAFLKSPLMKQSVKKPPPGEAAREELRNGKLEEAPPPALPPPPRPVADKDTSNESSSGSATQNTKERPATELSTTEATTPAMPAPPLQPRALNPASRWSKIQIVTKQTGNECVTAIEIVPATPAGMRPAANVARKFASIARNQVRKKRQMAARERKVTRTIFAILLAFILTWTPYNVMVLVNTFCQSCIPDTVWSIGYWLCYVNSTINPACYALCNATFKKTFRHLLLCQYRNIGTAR
The conditions noted are these: Compound concentration 10.0 uM.

Test [23] deals with Calcitonin receptor (Homo sapiens) (UniProt P30988). Put plainly: Inhibition of Calcitonin at 10 µM in the Eurofins-Panlabs radioligand binding assay (Eurofins_assay_213610). Conditions: Compound concentration 10.0 uM.
Test [24] concerns the target Phosphodiesterase PDE1 (Bos taurus) (UniProt Q01061+P14100+A0A3Q1MCV4). The test can be described thus: Phosphodiesterase PDE1 Eurofins-Panlabs enzyme assay. The test is classed as protein assay. Further details: substrate with concentration [3H] cAMP + cAMP, incubation time 20 min, incubation temperature 25 °C. Conditions: Compound concentration 100.0 uM.
Test [25] concerns the target Histamine H4 receptor (Homo sapiens) (UniProt Q9H3N8). Put plainly: Histamine H4 Eurofins-Panlabs radioligand binding assay. Conditions: Compound concentration 10.0 uM.
For test [26], the target named is Sodium-dependent dopamine transporter (Homo sapiens) (UniProt Q01959). Conditions: Compound concentration 10.0 uM.
Test [27] addresses Neuromedin-K receptor (Homo sapiens) (UniProt P29371). Put plainly: Tachykinin NK3 Eurofins-Panlabs radioligand binding assay. More on the design: ligand concentration 0.8 nM. Conditions: Compound concentration 10.0 uM.
Test [28] is filed under the species Rattus norvegicus. The test can be described thus: Serotonin (5-Hydroxytryptamine) 5-HT1, Non-Selective Eurofins-Panlabs radioligand binding assay. Conditions: Compound concentration 10.0 uM. The test is classed as protein assay.
Test [29] has as its target Oxytocin receptor (Homo sapiens) (UniProt P30559). Put plainly: Oxytocin Eurofins-Panlabs radioligand binding assay. Conditions: Compound concentration 10.0 uM.
The target of test [30] is 5-hydroxytryptamine receptor 7 (Homo sapiens, UniProt P34969). Put plainly: GPCRScan assay: inhibition of 5-HT7A. More on the design: radioligand conc. used [nm] 5.0 – 6.0, parental cells Stable HEK.
Test [31] deals with T2, Muscarinic acetylcholine receptor M5 (Homo sapiens) (UniProt P08912).
T2 sequence (whole entry): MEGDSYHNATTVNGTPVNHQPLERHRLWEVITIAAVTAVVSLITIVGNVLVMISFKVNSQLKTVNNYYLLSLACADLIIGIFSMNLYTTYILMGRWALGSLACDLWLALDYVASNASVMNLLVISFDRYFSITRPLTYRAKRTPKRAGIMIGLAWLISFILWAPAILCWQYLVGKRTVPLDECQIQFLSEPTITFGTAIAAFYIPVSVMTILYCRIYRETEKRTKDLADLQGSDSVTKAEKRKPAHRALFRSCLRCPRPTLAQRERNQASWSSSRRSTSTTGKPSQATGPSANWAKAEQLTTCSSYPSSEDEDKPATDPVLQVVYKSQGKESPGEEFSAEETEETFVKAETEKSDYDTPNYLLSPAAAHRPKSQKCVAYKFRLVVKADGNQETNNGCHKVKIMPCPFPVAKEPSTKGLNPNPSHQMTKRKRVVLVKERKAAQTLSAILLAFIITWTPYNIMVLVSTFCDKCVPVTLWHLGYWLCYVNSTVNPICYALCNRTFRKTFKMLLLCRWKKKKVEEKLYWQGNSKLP
Put plainly: Inhibition of Muscarinic M5 at 10 µM in the Eurofins-Panlabs radioligand binding assay (Eurofins_assay_253010). Further details: ligand concentration 0.8 nM. The conditions noted are these: Compound concentration 10.0 uM.

D(1B) dopamine receptor (Homo sapiens), sequence (P21918 whole entry): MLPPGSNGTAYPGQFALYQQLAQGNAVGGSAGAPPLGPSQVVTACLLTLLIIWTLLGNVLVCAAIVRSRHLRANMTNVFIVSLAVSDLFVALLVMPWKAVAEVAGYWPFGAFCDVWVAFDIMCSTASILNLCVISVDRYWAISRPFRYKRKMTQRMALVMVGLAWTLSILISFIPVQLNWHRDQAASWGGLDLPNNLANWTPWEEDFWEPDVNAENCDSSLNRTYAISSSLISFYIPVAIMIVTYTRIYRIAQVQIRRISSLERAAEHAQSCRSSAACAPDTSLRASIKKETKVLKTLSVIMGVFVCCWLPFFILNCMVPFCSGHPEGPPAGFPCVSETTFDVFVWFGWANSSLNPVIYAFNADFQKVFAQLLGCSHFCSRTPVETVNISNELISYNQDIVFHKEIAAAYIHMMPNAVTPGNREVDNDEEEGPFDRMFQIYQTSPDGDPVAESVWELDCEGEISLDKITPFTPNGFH
Caspase-6 (Homo sapiens), sequence (P55212 24-179 limits assumed): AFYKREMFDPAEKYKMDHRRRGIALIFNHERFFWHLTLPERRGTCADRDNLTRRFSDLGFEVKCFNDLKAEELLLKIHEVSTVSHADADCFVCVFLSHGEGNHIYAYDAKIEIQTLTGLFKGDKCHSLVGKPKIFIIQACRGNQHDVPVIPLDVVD
Caspase-6 (Homo sapiens), sequence (P55212 194-293 limits assumed): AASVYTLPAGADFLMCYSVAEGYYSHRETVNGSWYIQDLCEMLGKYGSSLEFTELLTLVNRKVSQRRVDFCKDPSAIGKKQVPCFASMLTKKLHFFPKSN
5-hydroxytryptamine receptor 7, sequence (P34969 whole entry): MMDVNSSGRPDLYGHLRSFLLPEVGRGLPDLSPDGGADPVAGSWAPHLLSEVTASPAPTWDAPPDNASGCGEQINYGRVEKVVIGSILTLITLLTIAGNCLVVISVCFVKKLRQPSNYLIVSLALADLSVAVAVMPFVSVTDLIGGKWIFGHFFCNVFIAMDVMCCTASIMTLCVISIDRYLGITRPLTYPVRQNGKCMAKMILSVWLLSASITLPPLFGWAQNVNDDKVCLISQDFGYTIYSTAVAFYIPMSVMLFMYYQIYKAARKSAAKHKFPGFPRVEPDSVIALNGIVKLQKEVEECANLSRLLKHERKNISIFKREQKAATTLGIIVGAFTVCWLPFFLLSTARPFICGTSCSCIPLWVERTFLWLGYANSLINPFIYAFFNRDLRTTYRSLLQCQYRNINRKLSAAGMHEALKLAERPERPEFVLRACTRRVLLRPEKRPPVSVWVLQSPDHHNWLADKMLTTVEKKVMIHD
Adenosine receptor A2a (Homo sapiens), sequence (P29274 whole entry): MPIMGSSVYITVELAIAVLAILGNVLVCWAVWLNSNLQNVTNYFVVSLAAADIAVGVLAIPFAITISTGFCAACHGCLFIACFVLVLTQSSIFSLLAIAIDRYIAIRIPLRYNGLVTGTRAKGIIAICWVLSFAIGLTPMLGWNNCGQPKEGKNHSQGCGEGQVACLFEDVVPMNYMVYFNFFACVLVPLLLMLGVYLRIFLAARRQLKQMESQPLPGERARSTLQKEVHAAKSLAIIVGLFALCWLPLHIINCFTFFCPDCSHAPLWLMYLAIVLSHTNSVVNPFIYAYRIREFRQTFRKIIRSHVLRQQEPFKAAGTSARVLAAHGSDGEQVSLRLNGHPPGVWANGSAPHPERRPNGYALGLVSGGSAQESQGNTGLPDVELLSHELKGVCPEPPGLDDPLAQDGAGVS
Phosphodiesterase PDE1 (Bos taurus), sequence (Q01061 whole entry): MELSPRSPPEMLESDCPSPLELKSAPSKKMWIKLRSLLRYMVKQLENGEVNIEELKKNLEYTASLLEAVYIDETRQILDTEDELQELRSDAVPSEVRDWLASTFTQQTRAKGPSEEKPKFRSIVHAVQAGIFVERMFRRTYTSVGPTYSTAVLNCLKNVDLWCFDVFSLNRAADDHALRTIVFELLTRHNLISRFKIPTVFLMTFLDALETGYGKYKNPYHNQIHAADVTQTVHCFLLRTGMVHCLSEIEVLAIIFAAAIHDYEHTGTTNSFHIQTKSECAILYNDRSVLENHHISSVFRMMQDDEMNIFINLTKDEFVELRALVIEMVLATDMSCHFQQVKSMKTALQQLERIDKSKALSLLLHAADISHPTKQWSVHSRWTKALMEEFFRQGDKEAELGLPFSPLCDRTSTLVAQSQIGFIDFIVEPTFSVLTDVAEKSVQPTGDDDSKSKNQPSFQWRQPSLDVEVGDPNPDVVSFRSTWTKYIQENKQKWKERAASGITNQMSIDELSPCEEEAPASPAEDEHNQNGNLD
Phosphodiesterase PDE1 (Bos taurus), sequence (P14100 whole entry): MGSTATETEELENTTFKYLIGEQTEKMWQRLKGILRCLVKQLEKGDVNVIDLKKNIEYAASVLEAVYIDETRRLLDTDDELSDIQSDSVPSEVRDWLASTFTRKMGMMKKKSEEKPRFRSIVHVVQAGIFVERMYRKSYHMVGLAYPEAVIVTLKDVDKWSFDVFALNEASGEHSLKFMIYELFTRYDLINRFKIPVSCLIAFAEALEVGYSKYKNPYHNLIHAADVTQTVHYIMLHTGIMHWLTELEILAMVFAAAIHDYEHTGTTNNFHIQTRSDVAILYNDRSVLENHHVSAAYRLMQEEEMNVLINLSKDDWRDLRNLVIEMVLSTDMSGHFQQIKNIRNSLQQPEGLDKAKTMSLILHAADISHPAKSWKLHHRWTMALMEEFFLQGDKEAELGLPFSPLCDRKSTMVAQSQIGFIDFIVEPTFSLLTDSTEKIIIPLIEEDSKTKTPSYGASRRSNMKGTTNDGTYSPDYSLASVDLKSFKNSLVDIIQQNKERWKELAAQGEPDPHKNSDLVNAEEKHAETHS
Phosphodiesterase PDE1 (Bos taurus), sequence (A0A3Q1MCV4 1-648): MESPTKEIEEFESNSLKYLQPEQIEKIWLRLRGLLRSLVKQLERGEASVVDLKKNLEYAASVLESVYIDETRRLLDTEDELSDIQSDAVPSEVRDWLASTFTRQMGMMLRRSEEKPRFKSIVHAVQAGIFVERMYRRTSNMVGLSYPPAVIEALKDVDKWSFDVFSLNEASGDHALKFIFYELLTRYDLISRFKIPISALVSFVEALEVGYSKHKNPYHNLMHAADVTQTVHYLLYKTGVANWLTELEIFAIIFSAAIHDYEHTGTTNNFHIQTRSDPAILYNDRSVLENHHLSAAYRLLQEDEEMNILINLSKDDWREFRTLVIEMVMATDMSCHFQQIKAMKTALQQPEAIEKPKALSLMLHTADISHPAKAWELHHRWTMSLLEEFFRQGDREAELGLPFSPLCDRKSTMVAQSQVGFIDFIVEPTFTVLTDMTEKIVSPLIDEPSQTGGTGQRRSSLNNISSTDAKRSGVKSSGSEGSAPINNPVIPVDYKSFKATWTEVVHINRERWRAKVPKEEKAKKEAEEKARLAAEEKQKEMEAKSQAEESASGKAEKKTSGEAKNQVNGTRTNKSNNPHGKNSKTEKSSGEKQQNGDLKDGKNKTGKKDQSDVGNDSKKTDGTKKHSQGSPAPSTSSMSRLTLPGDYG
Histamine H4 receptor (Homo sapiens), sequence (Q9H3N8 whole entry): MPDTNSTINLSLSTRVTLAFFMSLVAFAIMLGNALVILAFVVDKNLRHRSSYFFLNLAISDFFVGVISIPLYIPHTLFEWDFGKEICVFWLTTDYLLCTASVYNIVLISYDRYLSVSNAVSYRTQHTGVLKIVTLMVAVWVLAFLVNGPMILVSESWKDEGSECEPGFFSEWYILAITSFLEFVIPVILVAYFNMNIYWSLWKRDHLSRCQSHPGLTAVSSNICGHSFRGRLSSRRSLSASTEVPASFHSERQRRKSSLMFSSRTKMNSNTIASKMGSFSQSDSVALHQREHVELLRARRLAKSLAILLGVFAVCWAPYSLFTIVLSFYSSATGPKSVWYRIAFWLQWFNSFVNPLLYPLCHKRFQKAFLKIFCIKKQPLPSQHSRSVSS
Neprilysin (Homo sapiens), sequence (P08473 whole entry): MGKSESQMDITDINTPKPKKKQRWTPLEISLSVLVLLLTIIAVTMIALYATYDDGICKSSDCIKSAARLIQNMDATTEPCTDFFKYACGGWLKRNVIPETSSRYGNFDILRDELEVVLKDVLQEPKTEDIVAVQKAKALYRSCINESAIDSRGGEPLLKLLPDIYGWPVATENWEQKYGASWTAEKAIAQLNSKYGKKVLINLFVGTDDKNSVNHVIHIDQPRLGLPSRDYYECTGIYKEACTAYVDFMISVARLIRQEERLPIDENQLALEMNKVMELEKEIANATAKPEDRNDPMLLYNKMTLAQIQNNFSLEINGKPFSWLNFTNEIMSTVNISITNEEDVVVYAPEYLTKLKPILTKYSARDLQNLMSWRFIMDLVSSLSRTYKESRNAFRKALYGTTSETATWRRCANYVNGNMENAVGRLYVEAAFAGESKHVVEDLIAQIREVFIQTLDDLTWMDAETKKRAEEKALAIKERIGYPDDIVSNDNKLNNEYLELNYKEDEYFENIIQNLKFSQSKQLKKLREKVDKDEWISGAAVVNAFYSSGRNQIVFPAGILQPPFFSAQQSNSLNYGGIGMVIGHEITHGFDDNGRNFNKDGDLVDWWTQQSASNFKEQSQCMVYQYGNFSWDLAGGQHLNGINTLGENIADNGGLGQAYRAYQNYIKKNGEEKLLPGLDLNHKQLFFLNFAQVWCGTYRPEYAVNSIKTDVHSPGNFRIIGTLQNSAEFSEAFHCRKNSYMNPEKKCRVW
Prostaglandin F2-alpha receptor (Homo sapiens), sequence (P43088 whole entry): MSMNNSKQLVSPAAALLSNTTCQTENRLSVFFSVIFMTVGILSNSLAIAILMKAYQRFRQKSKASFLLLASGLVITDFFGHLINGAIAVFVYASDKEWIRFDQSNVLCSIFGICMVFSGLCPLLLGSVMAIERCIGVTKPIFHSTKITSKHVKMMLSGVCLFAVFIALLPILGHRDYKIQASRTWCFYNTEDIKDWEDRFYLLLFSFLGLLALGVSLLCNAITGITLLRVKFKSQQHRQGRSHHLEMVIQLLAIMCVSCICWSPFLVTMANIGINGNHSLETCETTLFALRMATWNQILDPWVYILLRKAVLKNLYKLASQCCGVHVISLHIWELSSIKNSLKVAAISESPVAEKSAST

Consider `N#CC1(c2ccccn2)CCN(Cc2cc(C(=O)N3CCCC3)c(=O)n3ccccc23)CC1`, for which the inhibition (usually the drop in the measured response relative to a control, in per cent) in test [1] is 2.79%; in test [2] it was -0.84%.

For the molecule `N#CC1(c2ccccn2)CCN(Cc2cc(C(=O)O)c(=O)n3ccccc23)CC1` [MSD-M1PAM], the inhibition was 6% in [3]; 45% in test [4]; -2% in the test filed under Homo sapiens [6]; -5% in test [7]; 9% in the test filed under Rattus norvegicus [8]; -5% in [9]. Besides, the inhibition was 5% at Caspase-7 (Homo sapiens); -6% in the test listed under Homo sapiens [10]; 10% in test [11]; -5.73% in test [12]; -6.58% in test [13]; 5% in [14]. The inhibition in test [15] is 2%; in test [16] it was 4%; in test [17] it was 3%; in [18], 2%; in [19] it was 12%; in the test listed under Rattus norvegicus [20], 17%. Besides, the inhibition on Caspase-6 (Homo sapiens) is 13%; in test [21], -2%; in test [22] it was 0%; in test [23], -5%; in [24], 28%; in test [25], 11%. In addition, the inhibition in test [26] is 0%; in test [27], 7%; in the test filed under Rattus norvegicus [28] it was 5%; in test [29], -5%; in test [31], 11%. Also, in [5], the inhibition at 10 µM is reported as 1% (not active). In test [30], the Ki (commonly a measure of affinity in units of concentration, obtained from inhibition or displacement) is 10 µM.
